This assay relates to SARS-CoV-2. Description: cell-based anti-viral assay using Vero E6 cell line, viral RNA by qRT-PCR. The conditions noted are these: Vero E6 cells, 48 h; for ΔCt (1 μM) / inhibition at 1 µM: 1 μM compound; for ΔCt (1 μM) / ΔCt (5 μM): increase in Ct vs no-drug control; for ΔCt (5 μM) / inhibition at 5 µM: 5 μM compound; for inhibition at 1 µM / inhibition at 5 µM: Severe acute respiratory syndrome coronavirus 2, Vero C1008, calculated from ΔCt; for inhibition at 1 µM: read-out: % SARS-CoV-2 Inactivation (1 μM); for inhibition at 5 µM: read-out: % SARS-CoV-2 Inactivation (5 μM).

A value given as a limit tells only on which side of the number the result lay.

With `COc1ccc2nc(Nc3cc(C(F)(F)F)cc(C(F)(F)F)c3)[nH]c2c1` [Example 37, N-(3,5-bis(trifluoromethyl)phenyl)-6-methoxy-1H-benzo[d]imidazol-2-amine], the “ΔCt (1 μM)” value stood at 5, the “ΔCt (5 μM)” value was found to be 4.3, the inhibition at 1 µM was more than 95% and the inhibition at 5 µM was more than 90%.

As for `CN(c1cccc(C(F)(F)F)c1)c1nc2c(C(F)(F)F)cc(C(F)(F)F)cc2[nH]1` [Example 40, N-methyl-4,6-bis(trifluoromethyl)-N-(3-(trifluoromethyl)phenyl)-1H-benzo[d]imidazol-2-amine], the “ΔCt (1 μM)” value is recorded as 5, the “ΔCt (5 μM)” value stood at 12.2, the inhibition at 1 µM is more than 95% and the inhibition at 5 µM was more than 99.9%.

As to `FC(F)(F)c1ccc(Nc2nc3ccc(C(F)(F)F)cc3[nH]2)cc1` [Example 33, 6-(trifluoromethyl)-N-(4-(trifluoromethyl)phenyl)-1H-benzo[d]imidazol-2-amine], the “ΔCt (1 μM)” value turned out to be 1.4, the “ΔCt (5 μM)” value stood at 14.3, the inhibition at 1 µM is less than 3% and the inhibition at 5 µM is 100%.

Turning to `Fc1cc2nc(Nc3ccccc3)[nH]c2cc1F` [Example 8, 5,6-difluoro-N-phenyl-1H-benzo[d]imidazol-2-amine], the “ΔCt (1 μM)” value was 3.1, the “ΔCt (5 μM)” value was 4.2, the inhibition at 1 µM is 90% and the inhibition at 5 µM was more than 90%.

Consider `FC(F)(F)Oc1ccc2nc(Nc3cc(C(F)(F)F)cc(C(F)(F)F)c3)[nH]c2c1` [Example 29, N-(3,5-bis(trifluoromethyl)phenyl)-6-(trifluoromethoxy)-1H-benzo[d]imidazol-2-amine], for which the “ΔCt (1 μM)” value is 4.7, the “ΔCt (5 μM)” value is given as 11.5, the inhibition at 1 µM is more than 95% and the inhibition at 5 µM is 99.9%.

`FC(F)(F)c1cc(C(F)(F)F)c2nc(Nc3ccccc3C(F)(F)F)[nH]c2c1` [Example 28, 4,6-bis(trifluoromethyl)-N-(2-(trifluoromethyl)phenyl)-1H-benzo[d]imidazol-2-amine]: the “ΔCt (1 μM)” value is given as −2, the “ΔCt (5 μM)” value is reported as 2, the inhibition at 1 µM was less than 3% and the inhibition at 5 µM was less than 3%.

`FC(F)(F)c1cccc(Nc2nc3ccc(C(F)(F)F)cc3[nH]2)c1` [Example 32, 6-(trifluoromethyl)-N-(3-(trifluoromethyl)phenyl)-1H-benzo[d]imidazol-2-amine]: the “ΔCt (1 μM)” value is 0.2, the “ΔCt (5 μM)” value is listed as 9.3, the inhibition at 1 µM is less than 3% and the inhibition at 5 µM is more than 99%.

For the compound `FC(F)(F)c1cc(C(F)(F)F)c2nc(N3CCCCC3)[nH]c2c1` [Example 16, 2-(piperidin-1-yl)-4,6-bis(trifluoromethyl)-1H-benzo[d]imidazole], the “ΔCt (1 μM)” value was 0.8, the “ΔCt (5 μM)” value is given as 1, the inhibition at 1 µM was less than 3% and the inhibition at 5 µM was less than 3%.

For the compound `FC(F)(F)c1cc(Nc2nc3c(C(F)(F)F)cc(C(F)(F)F)cc3[nH]2)cc(C(F)(F)F)c1` [Example 1, N-(3,5-bis(trifluoromethyl)phenyl)-4,6-bis(trifluoromethyl)-1H-benzo[d]imidazol-2-amine], the “ΔCt (1 μM)” value was found to be 5.7, the “ΔCt (5 μM)” value was 12, the inhibition at 1 µM is more than 95% and the inhibition at 5 µM is more than 99.9%.

Take `Fc1cccc(Nc2nc3c(C(F)(F)F)cc(C(F)(F)F)cc3[nH]2)c1` [Example 24, N-(3-fluorophenyl)-4,6-bis(trifluoromethyl)-1H-benzo[d]imidazol-2-amine]: the “ΔCt (1 μM)” value worked out at 0.7, the “ΔCt (5 μM)” value stood at 4.3, the inhibition at 1 µM is less than 3% and the inhibition at 5 µM was more than 90%.

The values are drawn from US20260042743A1, “SUBSTITUTED BENZIMIDAZOLES FOR TREATING VIRAL DISEASES” (COUNCIL OF SCIENTIFIC AND INDUSTRIAL RESEARCH, priority 2022, published 2026).
